“Also recorded” adds a separate entry of the source.
How the values were obtained:
CRY1 [1] = target: T1, CRY1 (Homo sapiens, UniProt Q16526); test: Protein immunoblot, unsynchronized U2-OS cells, CRY1; assay type: cell-based; details: Western blot
T1 construct: To evaluate the effect of FORMULA I on the endogenous protein and mRNA level of clock genes; endogenous in cells; host or cells: U2-OS
T1 sequence (Q16526 1-586): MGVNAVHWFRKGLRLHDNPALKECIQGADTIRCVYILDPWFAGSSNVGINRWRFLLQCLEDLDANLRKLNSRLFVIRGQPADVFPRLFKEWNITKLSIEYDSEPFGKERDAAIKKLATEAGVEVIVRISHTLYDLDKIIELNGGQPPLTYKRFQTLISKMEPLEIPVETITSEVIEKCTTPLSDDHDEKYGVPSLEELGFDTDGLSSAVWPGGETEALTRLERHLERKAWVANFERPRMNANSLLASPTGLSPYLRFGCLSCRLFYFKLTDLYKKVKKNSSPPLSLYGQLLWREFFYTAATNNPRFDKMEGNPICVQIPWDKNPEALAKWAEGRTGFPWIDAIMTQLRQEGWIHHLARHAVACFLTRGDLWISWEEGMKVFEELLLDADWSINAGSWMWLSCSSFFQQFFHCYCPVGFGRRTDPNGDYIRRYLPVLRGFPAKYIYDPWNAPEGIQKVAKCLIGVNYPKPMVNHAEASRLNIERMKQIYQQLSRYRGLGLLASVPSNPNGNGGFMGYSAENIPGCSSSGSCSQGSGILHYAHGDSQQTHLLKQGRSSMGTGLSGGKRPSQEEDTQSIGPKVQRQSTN
Protocol: Cells were lysed in RIPA buffer (50 mM Tris, 150 mM NaCl, 1% Triton-X, 0.1% SDS) with fresh Protease inhibitor cocktail (PIC). After centrifugation at 13000 rpm for 15 minutes at 4° C., supernatant was used to determine the protein amount using Pierce Protein Assay (Thermo Scientific) according to the manufacturer's instruction. Mice liver samples were homogenized and lysed with Dounce homogenizer and RIPA buffer. After homogenization samples were incubated 10 minutes on ice. After centrifugation 13000 rpm 15 minutes at 4° C. supernatant was used for the whole cell lysate. Subcellular fractionation of liver samples: Liver samples were homogenized with cytosolic lysis buffer (10 mM HEPES pH 7.9, 10 mM KCl, 0.1 mM EDTA, 0.05% NP40, proteasome inhibitor) by pipetting 40 times with a cut tip. Then samples were incubated 10 minutes on ice and centrifuged for 3 minutes at 3000 rpm at 4° C. Supernatant was saved in a new tube, and pellet was processed for the nuclear fraction. Supernatant was centrifuged at 13000 rpm for 3 minutes at 4° C. where new supernatant saved as the cytosolic fraction. […] ECL buffer system (Advansta WesternBright) was used to visualize HRP chemi-luminescence via BioRad ChemiDoc Touch visualizer.

CRY1 [2] = target: T1, CRY1; test: Protein immunoblot, synchronized U2-OS cells, CRY1; assay type: cell-based; details: 10 μM, 80-92 h
Protocol: (§1) FIGS. 3A-3G are an illustration of FORMULA I decreased CRY1 level in synchronized U2-OS cells. Confluent U2-OS cells were synchronized by 2 h treatment with dexamethasone ([…]) and medium replaced with fresh medium containing FORMULA I or solvent (DMSO final 0.5%). Cells were harvested at indicated time points. FIGS. 3A-3B show lysed cells were analyzed via protein immunoblot technique. […] CRY levels in DMSO control divided by that of in FORMULA I treated samples were reported (mean±SEM, n=4). FIGS. 3C-3G show cells were subjected to reverse-transcription-quantitative polymerase chain reaction (RT-qPCR). […] Expression level of genes was normalized according to the expression level of that gene at 72ndh. (Data represent the mean±SEM, n=3 with duplicates ***: p<0.001 **: p<0.005, *: p<0.05 versus DMSO control by two-way ANOVA).
(§2) Cells were lysed in RIPA buffer (50 mM Tris, 150 mM NaCl, 1% Triton-X, 0.1% SDS) with fresh Protease inhibitor cocktail (PIC). After centrifugation at 13000 rpm for 15 minutes at 4° C., supernatant was used to determine the protein amount using Pierce Protein Assay (Thermo Scientific) according to the manufacturer's instruction. Mice liver samples were homogenized and lysed with Dounce homogenizer and RIPA buffer. […] ECL buffer system (Advansta WesternBright) was used to visualize HRP chemi-luminescence via BioRad ChemiDoc Touch visualizer. […]

CRY2 = test: Protein immunoblot, synchronized U2-OS cells, CRY2; assay type: cell-based, human; details: 10 μM, 80-92 h
Protocol: as §1, §2

[3] = Plasma pharmacokinetics in mice; assay type: in vivo; details: female, C57BL/6J, mouse, ip, 100 mg/kg, single dose, i.p., read-out: AUC0-24

Cc1c(C(=O)N2CCc3ccccc32)oc2ccc3c(c12)C(=O)CC(C)(c1ccc(Cl)cc1)O3 (stereo not shown) [FORMULA I, 11-(4-chlorophenyl)-4-(2,3-dihydro-1H-indole-1-carbonyl)-3,11-dimethyl-5,10,dioxatricyclo[7.4.0.0,2,6,]trideca-1,3,6,8-tetraen-13-one]
steady-state level of CRY1 (CRY1 [1]): level of CRY1 reduced; also recorded: decreased the steady-state level of CRY1
CRY1 protein level (CRY1 [2]): decreased the protein level of CRY1
CRY2 protein level (CRY2): increased CRY2 levels; also recorded: increased the level of CRY2
AUC(0-t) [3]: 4920 ± 3070 ng·h/mL

Source: patent US20230104487A1, “11-(4-CHLOROPHENYL)-4-(2,3-DIHYDRO-1H-INDOLE-1-CARBONYL)-3,11-DIMETHYL-5,10,DIOXATRICYCLO[7.4.0.0,2,6,]TRIDECA-1,3,6,8-TETRAEN-13-ONE AND DERIVATIVES AS DESTABILIZER OF CRY1 FOR THE TREATMENT OF CIRCADIAN RHYTHM ASSOCIATED DISEASES AND DISORDERS” (KOC UNIVERSITESI, priority 2019, published 2023)
